Assay results: paper PMC8851282, “Senolysis induced by 25-hydroxycholesterol targets CRYAB in multiple cell types” (iScience, 2022)

Experiments:
[1] = system: FAPs; test: Cell viability assay (cell counting kit-8) of senescent and non-senescent FAPs treated with inhibitors; type: cell-based, mouse; conditions: for IC50: Mus musculus, FAPs
Description: Figure 3 25HC is a senolytic in multiple muscle cell types (A) Targets, compounds, and mechanisms. (B) Timeline of cell viability assay with inhibitors. Cells were pre-cultured for 24 h, treated with Doxo for 24 h, and then treated with inhibitors. Cell viability was analyzed from day 0–7. (C–E) Effects of inhibitors on viability of FAPs, SCs, and HSMMs. Cells were treated with inhibitors at the indicated concentrations. Cell viability was analyzed on day 3 (HSMMs) or 5 (FAPs and SCs). Blue and red dots indicate non-senescent (NS) and senescent (SEN), respectively. The average value at 0 μM for each group was set at 100% cell viability. p values versus NS were obtained using unpaired two-tailed Student’s t test. ∗p < 0.05, ∗∗p < 0.01, and ∗∗∗p < 0.001.
Figure 4 EC50 fitted curves (triplicates) of inhibitor effects at 3 and 7 days in FAPS and SCs EC50 was defined as the concentration of inhibitors that provokes a response halfway between baseline and maximum senolytic activity. EC50 values were determined by four- parameter logistic modeling using GraphPad Prism 8.0.
Hind limb muscles were digested in DMEM containing 0.5% (w/v) collagenase type II (Worthington) for 90 min at 37 °C with trituration and passed through a 40-μm nylon mesh. Erythrocytes were eliminated by treating with BD Pharm Lyse (BD Biosciences). Cells were resuspended in a washing buffer of PBS with 2% FBS and stained with antibodies for 30 min at 4 °C as described ([Kamizaki et al., 2017]). FAPs and SCs were isolated from the suspension by FACS (Aria II, BD Biosciences) using anti-CD31, CD45, Sca-1, PDGFR and VCAM1 antibodies. FAPs were identified as Sca1/PDGFR-positive and CD31-, CD45- and VCAM1-negative cells ([Uezumi et al., 2010]). SCs were identified as VCAM1-positive and CD31-, CD45-, Sca-1 and PDGFR-negative cells ([Liu et al., 2015]).
All experiments were performed in incubators at 37 °C, 3% O2 and 5% CO2. Senescence was induced by treatment with either Doxo (250 nM for 24 h) ([Demaria et al., 2017]) or X-irradiation (10 Gy) ([Limbad et al., 2020]). For cell culture studies using 25HC, it was used at the indicated concentrations in the media.
FAPs and SCs were cultured on Matrigel-coated dishes (BD Biosciences) in growth medium (GM) consisting of DMEM plus 10% FBS, 1% penicillin-streptomycin and 10% MyoCult (STEMCELL Technologies) for 7 days. Human myogenic cell HSMMs (Lonza) were maintained according to the manufacturer’s instructions with SkGM-2 medium (Lonza).
Cell viability was assessed using a cell counting kit-8 from Dojindo Molecular Technologies, Inc (Cat CK04-20). Cells were incubated with culture media + 10% kit cell viability reagent, 150 μL/well in 96-well plates for 2 h. The supernatant was transferred to a new 96-well plate and absorbance read at 450 nm as recommended in the product datasheet.

[2] = system: Cdkn1a and Cryab mRNA in gastrocnemius and soleus muscles; test: qRT-PCR of senescence markers and Cryab in muscles of Doxo-treated mice given 25HC; type: in vivo, mouse; conditions: Doxo-treated male mice, 25HC 50 mg/kg i.p. for 7 consecutive days
Description: (§1) Figure 8 25HC induces senolysis in vivo in Doxo-treated mice (A) Timeline of 25HC treatment in Doxo-treated mice. Mice were given 4 mg/kg Doxo or PBS for 5 daily injections[A1], then injected with 25HC or vehicle for 7 consecutive days. (B) Mass of gastrocnemius muscles. Muscle weight was normalized to body weight. (C) Cdkn2a and Cryab mRNA levels in gastrocnemius (Gastroc) and soleus (Sol) muscles. RNA was collected 28–30 d after the first treatment with Doxo. mRNA levels were quantified by qRT-PCR, and normalized to actin mRNA levels. The average value of PBS-vehicle was set at 1. (D) 15-d-PGJ2 analysis in urine. Urine was collected at 24 h after the first treatment with 25HC or HbCD. p values versus PBS-Veh or Doxo-Veh are obtained using Tukey's multiple comparisons test. ∗p < 0.05, ∗∗p < 0.01, p < 0.001, and ∗∗∗∗p < 0.0001.
Male C57BL/6J mice (3–4 months old) were purchased from the Jackson Laboratory. We performed five i.p. injections with 4 mg/kg of Doxo (Tocris Bioscience, Product# 2252) for each injection over 10 days (Figure 6A). Therefore, we injected a total of 20 mg/kg of Doxo/mouse over 10 days. We used EFT-PBS (EMD Millipore, Product# TMS-012-A) as a control. To test effects of 25HC (Tocris Bioscience, Product# 5741) on Doxo-treated mice, we prepared three experimental groups (n=15 for each group): 1) PBS+HβCD vehicle (22.5%), 2) Doxo (20 mg/kg)+vehicle (22.5%), 3) Doxo (20 mg/kg)+25HC (50 mg/kg) (Figure 6A); 25HC was dissolved in 22.5% 2-hydroxypropyl-beta-cyclodextrin (HβCD) (Tocris Bioscience, Product 0708). On the Day 5 after the last Doxo/PBS injections, the mice were treated with either 25HC (50 mg/kg) or vehicle by i.p. injections for 7 consecutive days (Figure 6A). 12 hr after the first 25HC or vehicle treatments, urine was collected (Figure 6A) from each group to test for the senolysis marker 15-d-PGJ2. […] Senescence markers p16^INK4a, p21^Cip1 and CRYAB expression was analyzed on gastrocnemius (Gastroc), soleus (So), tibialis anterior (TA), visceral fat (VF), kidney (Ki), liver (Li), lung (Lu), heart (He), and skin (Sk) samples by qRT-PCR. […]

[3] = system: 15-d-PGJ2; test: 15-d-PGJ2 ELISA in urine of Doxo-treated mice given 25HC; type: in vivo, mouse; conditions: urine collected after the first treatment with 25HC 50 mg/kg i.p. (24 h per Figure 8, 12 hr per methods)
Description: as §1, with “Urine was collected at 24 h after the first treatment with 25HC or HbCD. p values versus PBS-Veh or Doxo-Veh are obtained using Tukey's multiple comparisons test. ∗p < 0.05, ∗∗p < 0.01, p < 0.001, and ∗∗∗∗p < 0.0001.” left out
Male C57BL/6J mice (3–4 months old) were purchased from the Jackson Laboratory. […] Senescence markers p16^INK4a, p21^Cip1 and CRYAB expression was analyzed on gastrocnemius (Gastroc), soleus (So), tibialis anterior (TA), visceral fat (VF), kidney (Ki), liver (Li), lung (Lu), heart (He), and skin (Sk) samples by qRT-PCR.
Urine was collected at 12 or 24 h after the first treatment with 25HC or vehicle and diluted 10-fold with assay buffer. The amount of 15-d-PGJ2 was measured using a 15-deoxy-Δ^12,14-PGJ2 ELISA kit according to manufactures’ protocol (Enzo Life Sciences).

[4] = system: CRYAB; design: method as in Makley et al., 2015; conditions: ref Makley et al., 2015; cited from earlier work

C[C@H](CCCC(C)(C)O)[C@H]1CC[C@H]2[C@@H]3CC=C4C[C@@H](O)CC[C@]4(C)[C@H]3CC[C@]12C [25HC, 25-hydroxycholesterol]
viability of senescent versus non-senescent FAPs ([1]; Doxo-induced senescence, viability on day 5, 25HC at concentrations between 0.1 and 1 μM): specifically decreased the viability of senescent FAPs
IC50 ([1]; 72 h, 3 days in culture): 1700 nM
IC50 ([1]; 168 h, 7 days in culture): 1200 nM
Cryab mRNA levels in muscle [2]: reduced
Cdkn1a mRNA in gastrocnemius and soleus ([2]; versus Doxo + vehicle): significantly decreased
15-d-PGJ2 levels in urine [3]: increased significantly
CRYAB aggregation [4]: blocks CRYAB aggregation
